Source: the NIST ThermoML archive (doi:10.1016/j.jct.2003.11.008)

Legend:
[1] = excess molar enthalpy (molar enthalpy of mixing); xn = mol fraction of the nth substance listed; conditions: 318.15 K, 101.3 kPa, Liquid
[2] = xn = mol fraction of the nth substance listed; conditions: 318.15 K, 101.3 kPa, Liquid

CCCCCCCCCCC [undecane] + CCCOC(C)=O
Conditions	excess molar enthalpy [kcal/mol]	excess molar volume [m3/mol]
[1], x2 = 0.0814	0.103	–
[1], x2 = 0.1501	0.173	–
[1], x2 = 0.2265	0.24	–
[1], x2 = 0.2928	0.288	–
[1], x2 = 0.3534	0.32	–
[1], x2 = 0.4082	0.341	–
[1], x2 = 0.4582	0.354	–
[1], x2 = 0.5031	0.358	–
[1], x2 = 0.5439	0.358	–
[1], x2 = 0.5841	0.354	–
[1], x2 = 0.6226	0.345	–
[1], x2 = 0.6441	0.332	–
[1], x2 = 0.6911	0.312	–
[1], x2 = 0.7407	0.285	–
[1], x2 = 0.7924	0.25	–
[1], x2 = 0.8458	0.198	–
[1], x2 = 0.8971	0.141	–
[1], x2 = 0.9495	0.078	–
[2], x2 = 0.0791	–	3.43e-07
[2], x2 = 0.1544	–	6e-07
[2], x2 = 0.2306	–	8.2e-07
[2], x2 = 0.2908	–	9.49e-07
[2], x2 = 0.3479	–	1.051e-06
[2], x2 = 0.4046	–	1.133e-06
[2], x2 = 0.4573	–	1.159e-06
[2], x2 = 0.51	–	1.176e-06
[2], x2 = 0.5596	–	1.185e-06
[2], x2 = 0.6019	–	1.165e-06
[2], x2 = 0.6553	–	1.125e-06
[2], x2 = 0.6903	–	1.077e-06
[2], x2 = 0.7637	–	9.27e-07
[2], x2 = 0.8486	–	6.89e-07
[2], x2 = 0.9127	–	4.52e-07
[2], x2 = 0.9592	–	2.26e-07

CCCCCCCCCCC [undecane] + COC(C)=O
Conditions	excess molar enthalpy [kcal/mol]	excess molar volume [m3/mol]
[1], x2 = 0.1	0.161	–
[1], x2 = 0.203	0.297	–
[1], x2 = 0.2975	0.406	–
[1], x2 = 0.3707	0.475	–
[1], x2 = 0.4315	0.516	–
[1], x2 = 0.4836	0.538	–
[1], x2 = 0.528	0.547	–
[1], x2 = 0.5612	0.549	–
[1], x2 = 0.5935	0.548	–
[1], x2 = 0.6178	0.544	–
[1], x2 = 0.6538	0.533	–
[1], x2 = 0.6915	0.517	–
[1], x2 = 0.7306	0.494	–
[1], x2 = 0.769	0.463	–
[1], x2 = 0.8102	0.418	–
[1], x2 = 0.851	0.37	–
[1], x2 = 0.888	0.299	–
[1], x2 = 0.9283	0.223	–
[1], x2 = 0.9664	0.124	–
[2], x2 = 0.1232	–	7.69e-07
[2], x2 = 0.2463	–	1.347e-06
[2], x2 = 0.3266	–	1.58e-06
[2], x2 = 0.3942	–	1.734e-06
[2], x2 = 0.4679	–	1.879e-06
[2], x2 = 0.5333	–	1.922e-06
[2], x2 = 0.5823	–	1.908e-06
[2], x2 = 0.6365	–	1.851e-06
[2], x2 = 0.68	–	1.765e-06
[2], x2 = 0.7221	–	1.676e-06
[2], x2 = 0.76	–	1.554e-06
[2], x2 = 0.7954	–	1.415e-06
[2], x2 = 0.8183	–	1.337e-06
[2], x2 = 0.8875	–	9.9e-07
[2], x2 = 0.935	–	6.43e-07
[2], x2 = 0.9683	–	3.52e-07

CCCCCCCCCCC [undecane] + CCCCOC(C)=O
Conditions	excess molar enthalpy [kcal/mol]	excess molar volume [m3/mol]
[1], x2 = 0.0677	0.08	–
[1], x2 = 0.1493	0.151	–
[1], x2 = 0.2299	0.21	–
[1], x2 = 0.3113	0.255	–
[1], x2 = 0.3836	0.282	–
[1], x2 = 0.4482	0.296	–
[1], x2 = 0.5078	0.3	–
[1], x2 = 0.5555	0.295	–
[1], x2 = 0.5708	0.292	–
[1], x2 = 0.6136	0.28	–
[1], x2 = 0.6586	0.265	–
[1], x2 = 0.7055	0.248	–
[1], x2 = 0.7534	0.225	–
[1], x2 = 0.7837	0.206	–
[1], x2 = 0.832	0.173	–
[1], x2 = 0.8778	0.135	–
[1], x2 = 0.9233	0.0902	–
[1], x2 = 0.9637	0.0459	–
[2], x2 = 0.0356	–	1.49e-07
[2], x2 = 0.0842	–	3.26e-07
[2], x2 = 0.1543	–	5.21e-07
[2], x2 = 0.2226	–	6.82e-07
[2], x2 = 0.288	–	7.97e-07
[2], x2 = 0.35	–	8.56e-07
[2], x2 = 0.407	–	9.28e-07
[2], x2 = 0.4636	–	9.43e-07
[2], x2 = 0.5172	–	9.66e-07
[2], x2 = 0.5676	–	9.44e-07
[2], x2 = 0.6153	–	9.27e-07
[2], x2 = 0.6613	–	8.79e-07
[2], x2 = 0.7042	–	8.17e-07
[2], x2 = 0.7392	–	7.75e-07
[2], x2 = 0.8289	–	5.74e-07
[2], x2 = 0.8978	–	3.84e-07
[2], x2 = 0.9408	–	2.33e-07

CCCCCCCCCCCCCCC [pentadecane] + CCOC(C)=O
Conditions	excess molar enthalpy [kcal/mol]	excess molar volume [m3/mol]
[1], x2 = 0.0901	0.134	–
[1], x2 = 0.1777	0.244	–
[1], x2 = 0.2582	0.339	–
[1], x2 = 0.3339	0.41	–
[1], x2 = 0.397	0.456	–
[1], x2 = 0.4609	0.489	–
[1], x2 = 0.5093	0.505	–
[1], x2 = 0.5557	0.511	–
[1], x2 = 0.6033	0.509	–
[1], x2 = 0.6563	0.495	–
[1], x2 = 0.6935	0.48	–
[1], x2 = 0.7292	0.457	–
[1], x2 = 0.7706	0.424	–
[1], x2 = 0.813	0.384	–
[1], x2 = 0.8538	0.332	–
[1], x2 = 0.8958	0.273	–
[1], x2 = 0.9283	0.21	–
[1], x2 = 0.9676	0.115	–
[2], x2 = 0.0932	–	4.44e-07
[2], x2 = 0.1272	–	5.87e-07
[2], x2 = 0.2314	–	9.83e-07
[2], x2 = 0.3237	–	1.237e-06
[2], x2 = 0.4048	–	1.412e-06
[2], x2 = 0.465	–	1.483e-06
[2], x2 = 0.5427	–	1.54e-06
[2], x2 = 0.5987	–	1.536e-06
[2], x2 = 0.6373	–	1.512e-06
[2], x2 = 0.6957	–	1.432e-06
[2], x2 = 0.7643	–	1.293e-06
[2], x2 = 0.8273	–	1.104e-06
[2], x2 = 0.8926	–	8.05e-07
[2], x2 = 0.9375	–	5.48e-07
[2], x2 = 0.9714	–	2.73e-07

CCCCCCCCCCCCC [tridecane] + CCOC(C)=O
Conditions	excess molar enthalpy [kcal/mol]	excess molar volume [m3/mol]
[1], x2 = 0.0838	0.122	–
[1], x2 = 0.1616	0.217	–
[1], x2 = 0.2388	0.302	–
[1], x2 = 0.3097	0.371	–
[1], x2 = 0.3743	0.42	–
[1], x2 = 0.4307	0.449	–
[1], x2 = 0.4842	0.467	–
[1], x2 = 0.532	0.478	–
[1], x2 = 0.5728	0.479	–
[1], x2 = 0.6188	0.474	–
[1], x2 = 0.6556	0.463	–
[1], x2 = 0.6946	0.449	–
[1], x2 = 0.7336	0.427	–
[1], x2 = 0.7755	0.396	–
[1], x2 = 0.8179	0.354	–
[1], x2 = 0.8605	0.3	–
[1], x2 = 0.9015	0.239	–
[1], x2 = 0.9432	0.161	–
[1], x2 = 0.9761	0.0749	–
[2], x2 = 0.1246	–	6.09e-07
[2], x2 = 0.2249	–	9.81e-07
[2], x2 = 0.3076	–	1.215e-06
[2], x2 = 0.3854	–	1.386e-06
[2], x2 = 0.4562	–	1.461e-06
[2], x2 = 0.5148	–	1.515e-06
[2], x2 = 0.5732	–	1.518e-06
[2], x2 = 0.6235	–	1.506e-06
[2], x2 = 0.6695	–	1.462e-06
[2], x2 = 0.7136	–	1.402e-06
[2], x2 = 0.7509	–	1.322e-06
[2], x2 = 0.775	–	1.255e-06
[2], x2 = 0.8123	–	1.128e-06
[2], x2 = 0.881	–	8.36e-07
[2], x2 = 0.9317	–	5.36e-07
[2], x2 = 0.9691	–	2.65e-07

CCCCCCCCCCCCCCCCC [heptadecane] + COC(C)=O
Conditions	excess molar enthalpy [kcal/mol]	excess molar volume [m3/mol]
[1], x2 = 0.113	0.176	–
[1], x2 = 0.2193	0.327	–
[1], x2 = 0.3028	0.434	–
[1], x2 = 0.3894	0.521	–
[1], x2 = 0.4626	0.576	–
[1], x2 = 0.5247	0.606	–
[1], x2 = 0.5794	0.615	–
[1], x2 = 0.6278	0.607	–
[1], x2 = 0.6655	0.593	–
[1], x2 = 0.6858	0.582	–
[1], x2 = 0.7195	0.56	–
[1], x2 = 0.7539	0.528	–
[1], x2 = 0.7883	0.489	–
[1], x2 = 0.8246	0.444	–
[1], x2 = 0.861	0.398	–
[1], x2 = 0.8938	0.346	–
[1], x2 = 0.9264	0.29	–
[1], x2 = 0.9502	0.236	–
[1], x2 = 0.9763	0.145	–
[2], x2 = 0.0872	–	4.73e-07
[2], x2 = 0.1719	–	9e-07
[2], x2 = 0.2901	–	1.422e-06
[2], x2 = 0.3832	–	1.742e-06
[2], x2 = 0.4682	–	1.916e-06
[2], x2 = 0.5391	–	1.999e-06
[2], x2 = 0.5988	–	2.022e-06
[2], x2 = 0.6524	–	1.981e-06
[2], x2 = 0.694	–	1.916e-06
[2], x2 = 0.7348	–	1.806e-06
[2], x2 = 0.7632	–	1.698e-06
[2], x2 = 0.8016	–	1.579e-06
[2], x2 = 0.827	–	1.455e-06
[2], x2 = 0.8469	–	1.363e-06
[2], x2 = 0.8704	–	1.246e-06
[2], x2 = 0.9208	–	9.07e-07
[2], x2 = 0.9545	–	5.89e-07
[2], x2 = 0.9807	–	2.74e-07
